Results from patent US9670212B2, “Inhibitors of PI3K-delta and methods of their use and manufacture” (Exelixis, Inc., priority 2010, dated 2017).

Target: PI3K delta (Homo sapiens (Human), UniProt O00329)
Assay: Luciferase-coupled chemiluminescence kinase assay (KinaseGlo, ATP consumption)
Assay type: biochemical
Description: Kinase activity and compound inhibition were investigated using one or more of the assay formats described below. The ATP concentrations used in the various assays were approximately equal to or less than the KM for each of the respective kinases. Dose-response experiments were performed using an intra-plate dilution scheme with 10 different inhibitor concentrations in a 384-well microtiter plate. […] Typically N should approximate unity. Curve fitting was performed using XLFit or ActivityBase. Luciferase-Coupled Chemiluminescence Assay Protocol
Kinase activity is measured as the percent of ATP consumed following the kinase reaction using luciferase-luciferin-coupled chemiluminescence. […] Kinase reactions were initiated by combining test compounds, kinase, and ATP in a 20 μL volume (6 μL volume for 1536-well plate). The reaction mixture was incubated at ambient temperature for 2 h. Following the kinase reaction, a 20 μL (or 3 μL for 1536-well plate) aliquot of KinaseGlo (Promega) was added and the chemiluminescence signal measured using an EnVision plate reader (Perkin Elmer).

Chain of PI3K delta (O00329 whole entry): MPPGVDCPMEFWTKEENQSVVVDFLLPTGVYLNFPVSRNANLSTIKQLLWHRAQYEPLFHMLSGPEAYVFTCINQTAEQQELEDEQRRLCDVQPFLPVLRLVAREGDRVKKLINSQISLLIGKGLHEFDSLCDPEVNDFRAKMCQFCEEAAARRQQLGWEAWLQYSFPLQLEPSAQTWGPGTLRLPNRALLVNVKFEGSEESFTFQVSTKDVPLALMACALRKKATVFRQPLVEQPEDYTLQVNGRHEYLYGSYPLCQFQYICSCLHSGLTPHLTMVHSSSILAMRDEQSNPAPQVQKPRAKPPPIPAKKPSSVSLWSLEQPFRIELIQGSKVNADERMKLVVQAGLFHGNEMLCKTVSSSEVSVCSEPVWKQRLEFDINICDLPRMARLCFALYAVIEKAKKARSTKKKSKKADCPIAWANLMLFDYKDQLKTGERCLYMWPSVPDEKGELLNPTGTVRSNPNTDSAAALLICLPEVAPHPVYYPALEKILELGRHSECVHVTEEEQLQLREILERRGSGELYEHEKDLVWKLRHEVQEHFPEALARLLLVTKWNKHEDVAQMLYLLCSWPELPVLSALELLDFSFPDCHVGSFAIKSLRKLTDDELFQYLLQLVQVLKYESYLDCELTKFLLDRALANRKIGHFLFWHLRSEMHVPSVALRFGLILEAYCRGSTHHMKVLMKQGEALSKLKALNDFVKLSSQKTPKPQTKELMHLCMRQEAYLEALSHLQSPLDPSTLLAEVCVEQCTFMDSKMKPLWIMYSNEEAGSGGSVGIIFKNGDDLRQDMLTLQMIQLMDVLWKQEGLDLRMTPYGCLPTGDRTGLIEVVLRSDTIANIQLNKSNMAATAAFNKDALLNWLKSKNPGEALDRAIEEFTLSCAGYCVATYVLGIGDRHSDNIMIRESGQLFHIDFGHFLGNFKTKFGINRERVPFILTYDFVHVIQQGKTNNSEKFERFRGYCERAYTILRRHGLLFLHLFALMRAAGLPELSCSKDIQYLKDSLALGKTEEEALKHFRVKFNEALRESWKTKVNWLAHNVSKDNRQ
Chain of PI3K delta (P27986 whole entry partner): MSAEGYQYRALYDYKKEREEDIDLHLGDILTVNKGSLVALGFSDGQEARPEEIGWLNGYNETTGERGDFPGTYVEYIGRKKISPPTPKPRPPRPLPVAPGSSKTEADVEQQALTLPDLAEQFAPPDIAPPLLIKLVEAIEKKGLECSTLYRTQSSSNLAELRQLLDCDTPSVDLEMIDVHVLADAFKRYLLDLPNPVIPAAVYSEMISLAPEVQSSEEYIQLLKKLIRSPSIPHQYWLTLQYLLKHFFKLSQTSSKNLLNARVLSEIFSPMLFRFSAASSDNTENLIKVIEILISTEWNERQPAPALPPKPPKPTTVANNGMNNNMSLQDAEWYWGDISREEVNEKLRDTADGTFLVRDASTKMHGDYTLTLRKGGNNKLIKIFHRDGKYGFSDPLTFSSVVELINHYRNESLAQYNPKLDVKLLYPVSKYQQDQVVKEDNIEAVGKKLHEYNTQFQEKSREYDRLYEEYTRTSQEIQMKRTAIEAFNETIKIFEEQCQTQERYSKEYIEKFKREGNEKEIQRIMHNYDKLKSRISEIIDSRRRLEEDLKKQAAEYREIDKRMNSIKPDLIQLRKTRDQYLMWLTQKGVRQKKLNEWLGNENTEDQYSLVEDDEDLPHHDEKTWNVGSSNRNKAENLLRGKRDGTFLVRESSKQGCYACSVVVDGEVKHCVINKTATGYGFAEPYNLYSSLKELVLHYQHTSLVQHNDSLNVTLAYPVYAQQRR

| Compound | IC50 [nM] |
| --- | --- |
| Cc1cccc2cc(CNC(=O)c3nccnc3N)c(N(C)CCN(C)C(=O)c3ccncc3)nc12 [Compound 79, 3-amino-N-{[8-methyl-2-(methyl{2-[methyl(pyridin-4-ylcarbonyl)amino]ethyl}amino)quinolin-3-yl]methyl}pyrazine-2-carboxamide] | 50 to 250 |
| Cc1cccc2cc(CNC(=O)c3nccnc3N)c(N(C)CCN(C)C(=O)c3cccnc3)nc12 [Compound 80, 3-amino-N-{[8-methyl-2-(methyl{2-[methyl(pyridin-3-ylcarbonyl)amino]ethyl}amino)quinolin-3-yl]methyl}pyrazine-2-carboxamide] | 250 to 500 |
| Cc1cccc2cc(CNC(=O)c3nccnc3N)c(N(C)CCN(C)C(=O)c3ccccn3)nc12 [Compound 81, 3-amino-N-{[8-methyl-2-(methyl{2-[methyl(pyridin-2-ylcarbonyl)amino]ethyl}amino)quinolin-3-yl]methyl}pyrazine-2-carboxamide] | 250 to 500 |
| Cc1cccc2cc(CNC(=O)c3nccnc3N)c(N(C)CCN(C)Cc3cccnc3)nc12 [Compound 83, 3-amino-N-{[8-methyl-2-(methyl{2-[methyl(pyridin-3-ylmethyl)amino]ethyl}amino)quinolin-3-yl]methyl}pyrazine-2-carboxamide] | < 50 |
| Cc1cccc2cc(CNC(=O)c3nccnc3N)c(N(C)CCN(C)CC#N)nc12 [Compound 84, 3-amino-N-({2-[{2-[(cyanomethyl)(methyl)amino]ethyl}(methyl)amino]-8-methylquinolin-3-yl}methyl)pyrazine-2-carboxamide] | 50 to 250 |
| Cc1cccc2cc(CNC(=O)c3nccnc3N)c(N(C)CCN(C)C(=O)Cn3ccnc3)nc12 [Compound 85, 3-amino-N-({2-[{2-[(1H-imidazol-1-ylacetyl)(methyl)amino]ethyl}(methyl)amino]-8-methylquinolin-3-yl}methyl)pyrazine-2-carboxamide] | < 50 |
| Cc1cccc2cc(CNC(=O)c3nccnc3N)c(N(C)CCN(C)C(=O)Cn3ccnc3C)nc12 [Compound 86, 3-amino-N-({8-methyl-2-[methyl(2-{methyl[(2-methyl-1H-imidazol-1-yl)acetyl]amino}ethyl)amino]quinolin-3-yl}methyl)pyrazine-2-carboxamide] | < 50 |
| Cc1cccc2cc(CNC(=O)c3nccnc3N)c(N(C)Cc3cccnc3)nc12 [Compound 87, 3-amino-N-({8-methyl-2-[methyl(pyridin-3-ylmethyl)amino]quinolin-3-yl}methyl)pyrazine-2-carboxamide] | 50 to 250 |
| Cc1cccc2cc(CNC(=O)c3nccnc3N)c(N(C)CCc3ccccn3)nc12 [Compound 88, 3-amino-N-({8-methyl-2-[methyl(2-pyridin-2-ylethyl)amino]quinolin-3-yl}methyl)pyrazine-2-carboxamide] | 500 to 1500 |
| Cc1cccc2cc(CNC(=O)c3nccnc3N)c(N(C)CCN(C)CC(=O)N(C)C)nc12 [Compound 89, 3-amino-N-({2-[(2-{[2-(dimethylamino)-2-oxoethyl](methyl)amino}ethyl)(methyl)amino]-8-methylquinolin-3-yl}methyl)pyrazine-2-carboxamide] | < 50 |
| Cc1cccc2cc(CNC(=O)c3nccnc3N)c(N(C)CCN(C)c3cnccn3)nc12 [Compound 90, 3-amino-N-{[8-methyl-2-(methyl{2-[methyl(pyrazin-2-yl)amino]ethyl}amino)quinolin-3-yl]methyl}pyrazine-2-carboxamide] | 500 to 1500 |
| Nc1nccnc1C(=O)NCc1nc2ccccc2cc1-c1cscn1 [Compound 91, 3-amino-N-{[3-(1,3-thiazol-4-yl)quinolin-2-yl]methyl}pyrazine-2-carboxamide] | 500 to 1500 |
| CN(C)Cc1ccccc1-c1cc2ccccc2nc1CNC(=O)c1nccnc1N [Compound 92, 3-amino-N-[(3-{2-[(dimethylamino)methyl]phenyl}quinolin-2-yl)methyl]pyrazine-2-carboxamide] | 50 to 250 |
| Nc1nccnc1C(=O)NCc1nc2ccccc2cc1Br [Compound 93, 3-amino-N-[(3-bromoquinolin-2-yl)methyl]pyrazine-2-carboxamide] | 500 to 1500 |
| Cc1cccc2cc(CNC(=O)c3nccnc3N)c(N(C)CCN(C)C(=O)Cn3nccn3)nc12 [Compound 94, 3-amino-N-{[8-methyl-2-(methyl{2-[methyl(2H-1,2,3-triazol-2-ylacetyl)amino]ethyl}amino)quinolin-3-yl]methyl}pyrazine-2-carboxamide] | 50 to 250 |
| Cc1cccc2cc(CNC(=O)c3nccnc3N)c(NCc3cccnc3)nc12 [Compound 95, 3-amino-N-({8-methyl-2-[(pyridin-3-ylmethyl)amino]quinolin-3-yl}methyl)pyrazine-2-carboxamide] | 500 to 1500 |
| Cc1cccc2cc(CNC(=O)c3nccnc3N)c(NCCc3ccccn3)nc12 [Compound 96, 3-amino-N-({8-methyl-2-[(2-pyridin-2-ylethyl)amino]quinolin-3-yl}methyl)pyrazine-2-carboxamide] | 500 to 1500 |

| Compound | IC50 [nM] |
| --- | --- |
| Cc1cccc2cc(CNC(=O)c3nccnc3N)c(NCCc3cccnc3)nc12 [Compound 97, 3-amino-N-({8-methyl-2-[(2-pyridin-3-ylethyl)amino]quinolin-3-yl}methyl)pyrazine-2-carboxamide] | 500 to 1500 |
| Cc1cccc2cc(CNC(=O)c3nccnc3N)c(N(C)C3CCN(C)C3)nc12 (stereo not drawn) [Compound 98, 3-amino-N-({8-methyl-2-[methyl(1-methylpyrrolidin-3-yl)amino]quinolin-3-yl}methyl)pyrazine-2-carboxamide] | 50 to 250 |
| Cc1cccc2cc(CNC(=O)c3nccnc3N)c(N(C)C3CCN(C)CC3)nc12 [Compound 99, 3-amino-N-({8-methyl-2-[methyl(1-methylpiperidin-4-yl)amino]quinolin-3-yl}methyl)pyrazine-2-carboxamide] | 50 to 250 |
| Cc1cccc2cc(CNC(=O)c3nccnc3N)c(N(C)CCN(C)C(=O)Cn3ccnn3)nc12 [Compound 100, 3-amino-N-{[8-methyl-2-(methyl{2-[methyl(1H-1,2,3-triazol-1-ylacetyl)amino]ethyl}amino)quinolin-3-yl]methyl}pyrazine-2-carboxamide] | < 50 |
| Cc1cccc2cc(CNC(=O)c3nccnc3N)c(N(C)CCN(C)S(C)(=O)=O)nc12 [Compound 101, 3-amino-N-{[8-methyl-2-(methyl{2-[methyl(methylsulfonyl)amino]ethyl}amino)quinolin-3-yl]methyl}pyrazine-2-carboxamide] | 50 to 250 |
| Cc1cccc2cc(CNC(=O)c3nccnc3N)c(N(C)CCN(C)C(=O)[C@H]3CCCN3)nc12 [Compound 102, 3-amino-N-{[8-methyl-2-(methyl{2-[methyl(D-prolyl)amino]ethyl}amino)quinolin-3-yl]methyl}pyrazine-2-carboxamide] | 50 to 250 |
| COCCN(C)c1nc2c(C)cccc2cc1CNC(=O)c1nccnc1N [Compound 104, 3-amino-N-[(8-methyl-2-{methyl[2-(methyloxy)ethyl]amino}quinolin-3-yl)methyl]pyrazine-2-carboxamide] | 500 to 1500 |
| Cc1ccccc1-c1cc2ccccc2nc1CNC(=O)c1ncc(N2CCOCC2)nc1N [Compound 105, 3-amino-N-{[3-(2-methylphenyl)quinolin-2-yl]methyl}-5-morpholin-4-ylpyrazine-2-carboxamide] | 500 to 1500 |
| Cc1ccccc1-c1cc2ccccc2nc1CNC(=O)c1ncc(Cl)nc1N [Compound 107, 3-amino-5-chloro-N-{[3-(2-methylphenyl)quinolin-2-yl]methyl}pyrazine-2-carboxamide] | 500 to 1500 |
| Cc1ccccc1-c1cc2ccccc2nc1CNC(=O)c1cncnc1N [Compound 108, 4-amino-N-{[3-(2-methylphenyl)quinolin-2-yl]methyl}pyrimidine-5-carboxamide] | 500 to 1500 |
| Cc1cccc2cc(CNC(=O)c3nccnc3N)c(N(C)CCN(C)C(=O)CN3CCCC3)nc12 [Compound 109, 3-amino-N-{[8-methyl-2-(methyl{2-[methyl(pyrrolidin-1-ylacetyl)amino]ethyl}amino)quinolin-3-yl]methyl}pyrazine-2-carboxamide] | 50 to 250 |
| Cc1cccc2cc(CNC(=O)c3nccnc3N)c(N(C)CCN(C)C(=O)c3cncn3C)nc12 [Compound 110, 3-amino-N-({8-methyl-2-[methyl(2-{methyl[(1-methyl-1H-imidazol-5-yl)carbonyl]amino}ethyl)amino]quinolin-3-yl}methyl)pyrazine-2-carboxamide] | 50 to 250 |
| Cc1cccc2cc(CNC(=O)c3nccnc3N)c(-n3ccnc3)nc12 [Compound 111, 3-amino-N-{[2-(1H-imidazol-1-yl)-8-methylquinolin-3-yl]methyl}pyrazine-2-carboxamide] | 250 to 500 |
| Cc1cccc2cc(CNC(=O)c3nccnc3N)c(-n3cnc4ccccc43)nc12 [Compound 112, 3-amino-N-{[2-(1H-benzimidazol-1-yl)-8-methylquinolin-3-yl]methyl}pyrazine-2-carboxamide] | 500 to 1500 |
| Cc1cccc2cc(CNC(=O)c3nccnc3N)c(N(C)CCN(C)C(=O)[C@@H]3CCCN3C)nc12 [Compound 113, 3-amino-N-{[8-methyl-2-(methyl{2-[methyl(1-methyl-L-prolyl)amino]ethyl}amino)quinolin-3-yl]methyl}pyrazine-2-carboxamide] | 50 to 250 |
| Cc1cccc2cc(CNC(=O)c3nccnc3N)c(N(C)CCN(C)C(=O)CN(C)C)nc12 [Compound 114, 3-amino-N-({2-[{2-[(N,N-dimethylglycyl)(methyl)amino]ethyl}(methyl)amino]-8-methylquinolin-3-yl}methyl)pyrazine-2-carboxamide] | 50 to 250 |
